From patent publication US20030176500A1, “Medium chain fatty acids applicable as antimicrobial agents” (priority 2000, published 2003)

System: E. coli K88
Assay: Control of E. coli K88 growth in Brain Heart Infusion broth (OD600nm)
Assay type: cell-based, Escherichia coli
Conditions: colistine 12 ppm, sodium salt of MCFA 1200 ppm; for OD600nm: pH 4.0, 37° C., MCFA values higher by intrinsic turbidity
Description: Three samples of 100 ml of fermentation broth (Brain Heart Infusion) were equally inoculated with an overnight culture of E. coli K88 (pathogen in gastrointestinal tract of piglet) and further incubated at 37° C. The optical density at 600 nm (OD600nm)—which is proportional to the amount of E. coli cells present (FIG. 1)—was measured. As soon as an OD600nm of between 0.2 and 0.5 was obtained,
(1) nothing was added to the first sample,
(2) 12 ppm of colistine was added to the second sample and
(3) 1200 ppm of the sodium salt of MCFA (mixture containing 50% of fatty acid with 8 carbon atoms and 50% of fatty acid with 10 carbon atoms) was added to the third sample.
The samples were further incubated at 37° C. for 4 hours at pH 4.0. The OD600nm was measured evey hour. The samples were removed from the incubation after 4 hours, the pH was measured in order to register possible pH changes during incubation.

In the case of colistine, the OD600nm (2 hours after pH setting) is reported as 0.420, the OD600nm (3 hours after pH setting) is reported as 0.449 and the OD600nm (4 hours after pH setting) is reported as 0.455. The “Difference in OD600nm” value (between 2 and 4 hours) was 0.035, the Growth % (blank = 100) was 44% and the “growth of E. coli retarded” value (pH 4.0) was 56%.
